Source: ChEMBL document CHEMBL2203204, “Identification of selective inhibitors of indoleamine 2,3-dioxygenase 2” (Bioorg Med Chem Lett, 2012)
Activity calls are given as the source filed them. The rule behind the calls is not given here.

How the values were obtained:
[1] = molecular target: T1, Indoleamine 2,3-dioxygenase 2 (Mus musculus) (UniProt Q8R0V5); settings: HEK-293T, at 20 µM
T1 sequence (whole entry): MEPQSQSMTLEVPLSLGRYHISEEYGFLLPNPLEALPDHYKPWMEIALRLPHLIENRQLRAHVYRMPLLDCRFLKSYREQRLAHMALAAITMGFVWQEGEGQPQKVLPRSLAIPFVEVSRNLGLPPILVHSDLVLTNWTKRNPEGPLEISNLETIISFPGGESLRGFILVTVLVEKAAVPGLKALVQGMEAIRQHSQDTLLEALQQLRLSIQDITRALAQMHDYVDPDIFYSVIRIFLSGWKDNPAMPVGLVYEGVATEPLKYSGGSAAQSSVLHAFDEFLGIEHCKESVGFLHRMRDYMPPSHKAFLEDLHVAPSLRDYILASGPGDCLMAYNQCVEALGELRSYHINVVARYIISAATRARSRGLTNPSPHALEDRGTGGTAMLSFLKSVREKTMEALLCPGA
Description: (§1) Inhibition of mouse Ido2 transfected in HEK293T cells using L-tryptophan as substrate assessed as kynurenine formation at 20 uM after 45 mins by spectrophotometric analysis relative to control

[2] = molecular target: Tryptophan 2,3-dioxygenase (Mus musculus) (UniProt P48776); experiment: Inhibition of mouse Tdo2 transfected in HEK293T cells using L-tryptophan as substrate assessed as kynurenine formation at 100 uM after 45 mins by spectrophotometric analysis relative to control; type: cell-based; settings: HEK-293T
Mus musculus = species on record: Mus musculus; experiment: Selectivity ratio of IC50 for mouse Ido1 to IC50 for mouse Ido2
[3] = molecular target: T2, Indoleamine 2,3-dioxygenase 2 (Mus musculus, UniProt Q8R0V5); experiment: Inhibition of mouse Ido2 transfected in HEK293T cells using L-tryptophan as substrate assessed as kynurenine formation after 45 mins by spectrophotometric analysis; type: cell-based, HEK-293T
T2 sequence (Q8R0V5 whole entry): T1 sequence (whole entry)

[4] = molecular target: Indoleamine 2,3-dioxygenase 1 (Mus musculus, UniProt P28776); experiment: Inhibition of mouse Ido1 transfected in HEK293T cells using L-tryptophan as substrate assessed as kynurenine formation after 45 mins by spectrophotometric analysis; type: cell-based, HEK-293T
HEK-293T = experiment: Cytotoxicity against HEK293T cells assessed as decrease in cell viability at 25 uM after 24 hrs by trypan blue exclusion assay; type: cell-based; settings: human
[5] = molecular target: Indoleamine 2,3-dioxygenase 2 (Mus musculus) (UniProt Q8R0V5); settings: HEK-293T, at 20 µM; remark: listed apart in the source
Description: as §1

[6] = molecular target: T1, Indoleamine 2,3-dioxygenase 2 (Mus musculus); experiment: Inhibition of mouse Ido2 transfected in HEK293T cells using L-tryptophan as substrate assessed as assessed as residual activity at 100 uM after 45 mins by spectrophotometric analysis relative to control; type: cell-based; settings: HEK-293T
[7] = molecular target: Indoleamine 2,3-dioxygenase 1 (Mus musculus) (UniProt P28776); experiment: Inhibition of mouse Ido1 transfected in HEK293T cells using L-tryptophan as substrate assessed as residual activity at 100 uM after 45 mins by spectrophotometric analysis relative to control; type: cell-based; settings: HEK-293T
Sequence of Indoleamine 2,3-dioxygenase 1 (Mus musculus) (P28776 whole entry, looked up): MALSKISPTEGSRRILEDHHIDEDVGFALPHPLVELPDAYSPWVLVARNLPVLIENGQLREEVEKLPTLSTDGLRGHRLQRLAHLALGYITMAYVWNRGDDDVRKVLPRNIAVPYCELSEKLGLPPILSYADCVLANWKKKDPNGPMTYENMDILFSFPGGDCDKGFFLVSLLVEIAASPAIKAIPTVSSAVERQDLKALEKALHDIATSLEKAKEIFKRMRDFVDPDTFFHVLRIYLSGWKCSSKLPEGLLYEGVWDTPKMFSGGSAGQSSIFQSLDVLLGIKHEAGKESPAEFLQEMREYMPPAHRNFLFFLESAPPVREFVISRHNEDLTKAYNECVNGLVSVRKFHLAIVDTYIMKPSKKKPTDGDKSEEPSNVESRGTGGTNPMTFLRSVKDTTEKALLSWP

Sequence of Tryptophan 2,3-dioxygenase (Mus musculus) (P48776 whole entry): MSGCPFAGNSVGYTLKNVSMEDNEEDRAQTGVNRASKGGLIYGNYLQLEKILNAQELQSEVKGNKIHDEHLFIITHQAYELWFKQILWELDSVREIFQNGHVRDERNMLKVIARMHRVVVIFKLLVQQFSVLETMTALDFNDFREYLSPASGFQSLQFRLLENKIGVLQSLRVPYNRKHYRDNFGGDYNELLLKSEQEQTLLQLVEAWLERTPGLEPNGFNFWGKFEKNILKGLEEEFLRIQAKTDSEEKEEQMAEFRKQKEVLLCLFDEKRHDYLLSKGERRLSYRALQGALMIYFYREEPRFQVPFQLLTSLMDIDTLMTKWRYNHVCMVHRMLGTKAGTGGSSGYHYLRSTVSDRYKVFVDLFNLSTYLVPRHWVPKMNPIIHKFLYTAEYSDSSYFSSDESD
Sequence of Indoleamine 2,3-dioxygenase 1 (P28776 whole entry): as the sequence (P28776 whole entry, looked up) above

Compound: CN1C[C@H](C(=O)N[C@]2(C)O[C@@]3(O)[C@@H]4CCCN4C(=O)[C@H](Cc4ccccc4)N3C2=O)C=C2c3cccc4[nH]cc(c34)C[C@H]21
- inhibition [1]: > 55%

Compound: CC#CCC(C)[C@H](O)/C=C/[C@@H]1[C@H]2C/C(=C/CCCC(=O)O)C[C@H]2C[C@H]1O (some centres not stated)
- inhibition [1]: > 55%

Compound: COC(=O)C1=C(C)NC(C)=C(C(=O)OC)C1c1ccccc1[N+](=O)[O-] [NIFEDIPINE]
- inhibition [2]: < 20%
- Ratio IC50 (Mus musculus): 30
- IC50 [3]: 1.5 µM
- IC50 [4]: 46 µM
- inhibition [1]: > 55%

Compound: Clc1ccc(C(Cn2ccnc2)OCc2csc3c(Cl)cccc23)c(Cl)c1 (configuration not stated)
- inhibition [1]: > 55%

Compound: CC1=C(/C=C/C(C)=C/C=C/C(C)=C/C(=O)Nc2ccc(O)cc2)C(C)(C)CCC1 [FENRETINIDE]
- Activity (HEK-293T): Non-toxic
- inhibition [2]: 32%
- IC50 [3]: 18.7 µM
- IC50 [4]: 59.9 µM
- inhibition [1]: > 55%

Compound: C[C@H](CS)C(=O)N1CCC[C@H]1C(=O)O
- inhibition [1]: > 55%

Compound: COc1ccc2[nH]c([S+]([O-])Cc3ncc(C)c(OC)c3C)nc2n1 (configuration not stated) [TENATOPRAZOLE]
- inhibition [2]: inactive
- IC50 [3]: 1.8 µM
- IC50 [4]: > 100 µM
- inhibition [1]: > 55%

Compound: c1ccc(-c2ccc(C(c3ccccc3)n3ccnc3)cc2)cc1 (configuration not stated)
- inhibition [1]: > 55%

Compound: OCCN(CCO)c1nc(N2CCCCC2)c2nc(N(CCO)CCO)nc(N3CCCCC3)c2n1
- inhibition [1]: > 55%

Compound: CCN(CC)CCCC(C)Nc1c2ccc(Cl)cc2nc2ccc(OC)cc12 (configuration not stated)
- inhibition [1]: > 55%

Compound: CCOC(=O)C1=C(C)NC(C)=C(C(=O)OC)C1c1cccc(Cl)c1Cl (configuration not stated)
- inhibition [1]: > 55%

Compound: COc1cc2nc(N(C)CCCNC(=O)C3CCCO3)nc(N)c2cc1OC (configuration not stated)
- inhibition [1]: > 55%

Compound: CCOC(=O)C1=C(C)NC(C)=C(C(=O)OC)C1c1cccc([N+](=O)[O-])c1 (configuration not stated)
- inhibition [1]: > 55%

Compound: COC(=O)Nc1nc2cc(C(=O)c3ccccc3)ccc2[nH]1
- inhibition [1]: > 55%

Compound: CC(C)C[C@H]1C(=O)N2CCC[C@H]2[C@]2(O)O[C@](NC(=O)[C@@H]3C=C4c5cccc6[nH]c(Br)c(c56)C[C@H]4N(C)C3)(C(C)C)C(=O)N12
- inhibition [1]: > 55%

Compound: CCC[S+]([O-])c1ccc2[nH]c(NC(=O)OC)nc2c1 (configuration not stated)
- inhibition [1]: > 55%

Compound: COC(=O)C1=C(C)NC(C)=C(C(=O)OCC(C)C)C1c1ccccc1[N+](=O)[O-] (configuration not stated)
- inhibition [1]: > 55%

Compound: COc1ccnc(C[S+]([O-])c2nc3ccc(OC(F)F)cc3[nH]2)c1OC (configuration not stated) [PANTOPRAZOLE]
- IC50 [3]: 12.6 µM
- IC50 [4]: 109 µM

Compound: CCCCCN(CCCCC)C(=O)C(CCC(=O)O)NC(=O)c1ccc(Cl)c(Cl)c1 (configuration not stated)
- inhibition [1]: > 55%

Compound: CCCc1nn(C)c2c(=O)[nH]c(-c3cc(S(=O)(=O)N4CCN(C)CC4)ccc3OCC)nc12 [SILDENAFIL]
- inhibition [2]: inactive
- IC50 [3]: 4.5 µM
- IC50 [4]: > 100 µM
- inhibition [1]: > 55%

Compound: CC(c1cc2ccccc2s1)N(O)C(N)=O (configuration not stated)
- inhibition [1]: > 55%

Compound: O=C1Nc2ccc(Cl)cc2[C@@](C#CC2CC2)(C(F)(F)F)O1
- inhibition [1]: > 55%

Compound: CCN(CC)C(=S)SSC(=S)N(CC)CC
- inhibition [1]: > 55%

Compound: Clc1ccc(COC(Cn2ccnc2)c2ccc(Cl)cc2Cl)cc1 (configuration not stated) [ECONAZOLE]
- inhibition [2]: > 95%
- IC50 [3]: 7.6 µM
- IC50 [4]: 11.2 µM

Compound: Clc1ccc(CSC(Cn2ccnc2)c2ccc(Cl)cc2Cl)cc1 (configuration not stated) [SULCONAZOLE]
- inhibition [2]: > 95%
- IC50 [3]: 10.1 µM
- IC50 [4]: 29.3 µM

Compound: CC[C@@H](C(N)=O)N1CCCC1=O
- inhibition [1]: > 55%

Compound: COCCOC(=O)C1=C(C)NC(C)=C(C(=O)OC(C)C)C1c1cccc([N+](=O)[O-])c1 (configuration not stated)
- inhibition [1]: > 55%

Compound: NC[C@H]1CC[C@H](C(=O)O)CC1
- inhibition [1]: > 55%

Compound: Cc1c(C)c2c(c(C)c1O)CCC(C)(COc1ccc(CC3SC(=O)NC3=O)cc1)O2 (configuration not stated) [TROGLITAZONE]
- inhibition [2]: < 20%
- Ratio IC50 (Mus musculus): 14
- IC50 [3]: 4.5 µM
- IC50 [4]: 61 µM
- inhibition [1]: > 55%

Compound: COc1ccnc(C[S+]([O-])c2nc3cc(OC(F)F)ccc3[nH]2)c1OC (configuration not stated)
- inhibition [2]: inactive

Compound: COCCOC(=O)C1=C(C)NC(C)=C(C(=O)OC/C=C/c2ccccc2)C1c1cccc([N+](=O)[O-])c1 (configuration not stated)
- inhibition [1]: > 55%

Compound: COc1ccccc1OCCNCC(O)COc1cccc2[nH]c3ccccc3c12 (configuration not stated)
- inhibition [1]: > 55%

Compound: O=C(O)Cc1sc(-c2ccccc2)nc1-c1ccc(Cl)cc1
- inhibition [1]: > 55%

Compound: C[C@@H]1CC[C@H]2[C@@H](C)C(=O)O[C@@H]3O[C@@]4(C)CC[C@@H]1[C@]32OO4
- inhibition [1]: > 55%

Compound: AURANOFIN
- inhibition [5]: > 55%

Compound: Clc1ccc(C(Cn2ccnc2)OCc2ccsc2Cl)c(Cl)c1 (configuration not stated)
- inhibition [1]: > 55%

Compound: CCCc1nc2c(C)cc(-c3nc4ccccc4n3C)cc2n1Cc1ccc(-c2ccccc2C(=O)O)cc1
- inhibition [1]: > 55%

Compound: COC(=O)C1=C(C)NC(C)=C(C(=O)OCCN(C)Cc2ccccc2)C1c1cccc([N+](=O)[O-])c1 (configuration not stated)
- inhibition [1]: > 55%

Compound: Cc1c(OCC(F)(F)F)ccnc1C[S+]([O-])c1nc2ccccc2[nH]1 (configuration not stated) [LANSOPRAZOLE]
- Activity (HEK-293T): Non-toxic
- inhibition [2]: < 20%
- IC50 [3]: 8.2 µM
- IC50 [4]: 94 µM

Compound: CC1=C(/C=C/C(C)=C/C=C/C(C)=C/C(=O)O)C(C)(C)CCC1 [TRETINOIN]
- inhibition [2]: inactive
- Activity [6]: < 5%
- Activity [7]: 100%
- Ratio IC50 (Mus musculus): 10
- IC50 [3]: 28.7 µM
- IC50 [4]: 301 µM
- inhibition [1]: > 55%

Compound: CCOC(=O)C1=C(C)NC(C)=C(C(=O)OCC)C1c1ccccc1/C=C/C(=O)OC(C)(C)C
- inhibition [1]: > 55%

Compound: Clc1ccc(COC(Cn2ccnc2)c2ccc(Cl)cc2Cl)c(Cl)c1 (configuration not stated) [MICONAZOLE]
- Activity (HEK-293T): Non-toxic
- inhibition [2]: > 95%
- IC50 [3]: 6.7 µM
- IC50 [4]: 17.8 µM
- inhibition [1]: > 55%

Compound: CC(C)OC(=O)C(C)(C)Oc1ccc(C(=O)c2ccc(Cl)cc2)cc1
- inhibition [1]: > 55%

Compound: Clc1ccccc1C(c1ccccc1)(c1ccccc1)n1ccnc1 [CLOTRIMAZOLE]
- inhibition [2]: > 95%
- IC50 [3]: 5.9 µM
- IC50 [4]: 51.6 µM

Compound: COC(=O)Nc1nc2cc([S+]([O-])c3ccccc3)ccc2[nH]1 (configuration not stated)
- inhibition [1]: > 55%

Compound: Clc1ccc(CO/N=C(\Cn2ccnc2)c2ccc(Cl)cc2Cl)c(Cl)c1
- inhibition [1]: > 55%

Compound: COc1cc2c(cc1OC)-c1c/c(=N\c3c(C)cc(C)cc3C)n(C)c(=O)n1CC2
- inhibition [1]: > 55%

Compound: CCCSc1ccc2[nH]c(NC(=O)OC)nc2c1
- inhibition [1]: > 55%

Compound: CC1=C(C)C(=O)C(CCCCC#CCCCC#CCO)=C(C)C1=O
- inhibition [1]: > 55%
